Assay results as given in PubChem BioAssay (NCI).
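Exposure lasted 48 hours, with cells grown in 96-well plates and compounds tested at five concentrations. The concentration for 50% growth inhibition is given as GI50. TGI denotes the concentration required for complete inhibition of growth.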

Columns and labels:
Assay in all cases: NCI anticancer screen, dose series, 48 h
CAKI-1 renal = system: CAKI-1 renal
SK-MEL-5 melanoma = system: SK-MEL-5 melanoma
SN12C renal = system: SN12C renal
SNB-19 CNS = system: SNB-19 CNS
IGROV1 ovarian = system: IGROV1 ovarian
MOLT-4 leukemia = system: MOLT-4 leukemia
U251 CNS = system: U251 CNS
SR leukemia = system: SR leukemia
NCI-H460 lung = system: NCI-H460 lung
NCI-H23 lung = system: NCI-H23 lung

Structure (SMILES) | TGI (CAKI-1 renal) | TGI (SK-MEL-5 melanoma) | TGI (SN12C renal) | TGI (SNB-19 CNS) | TGI (IGROV1 ovarian) | TGI (MOLT-4 leukemia) | TGI (U251 CNS) | TGI (SR leukemia) | TGI (NCI-H460 lung) | TGI (NCI-H23 lung) | GI50 (CAKI-1 renal) | GI50 (SK-MEL-5 melanoma) | GI50 (SN12C renal) | GI50 (SNB-19 CNS) | GI50 (IGROV1 ovarian) | GI50 (MOLT-4 leukemia) | GI50 (U251 CNS) | GI50 (SR leukemia) | GI50 (NCI-H460 lung) | GI50 (NCI-H23 lung)
Cc1cc(N(CCC#N)CCC#N)ccc1/C=C(\NC(=O)/C=C/c1ccccc1)C(=O)NN | > 100 µM | > 100 µM | > 100 µM | > 55.7 µM | > 100 µM | > 100 µM | > 78 µM | > 100 µM | > 100 µM | > 100 µM | – | – | – | – | – | – | – | – | – | –
CNC(=O)c1nn(C)c2c1C(C)(C)Cc1cnc(Nc3ccc(N4CCN(C)CC4)cc3)nc1-2 | 1.22 µM | > 10 µM | > 10 µM | > 10 µM | 1.6 µM | > 5.29 µM | > 10 µM | > 5.71 µM | > 10 µM | > 7.26 µM | 0.114 µM | 7.44 µM | 0.705 µM | 0.322 µM | 0.182 µM | 0.546 µM | 0.846 µM | 0.452 µM | 0.408 µM | 0.966 µM
N#CNC(N)=Nc1ccc(Cl)cc1 | > 100 µM | > 100 µM | > 100 µM | > 100 µM | > 100 µM | > 100 µM | > 100 µM | > 100 µM | > 100 µM | > 100 µM | – | – | – | – | – | – | – | – | – | –
O=[N+]([O-])c1ccc(-c2ccc(-c3csc(Nc4ccccc4)n3)o2)cc1 | 39.5 µM | 40.1 µM | 33 µM | > 65.8 µM | > 63.9 µM | 46.2 µM | 41.5 µM | 4.76 µM | > 67 µM | 36.8 µM | – | – | – | – | – | – | – | – | – | –
CCNC(=O)c1noc(-c2cc(C(C)C)c(O)cc2O)c1-c1ccc(CN2CCOCC2)cc1 | > 100 µM | 14.2 µM | > 100 µM | > 100 µM | > 100 µM | > 100 µM | 15.5 µM | 29 µM | 14.6 µM | 27.2 µM | 0.059 µM | 0.047 µM | 0.0707 µM | 0.0762 µM | < 0.0224 µM | 0.0326 µM | < 0.0131 µM | 0.0407 µM | < 0.0152 µM | 0.0535 µM
CCOC(=O)/C(C#N)=C\C=C(/Cl)c1ccc(Cl)cc1 | 22.5 µM | 39 µM | 54.7 µM | 46.4 µM | 27.1 µM | > 100 µM | 32.1 µM | > 100 µM | > 77.5 µM | 26.9 µM | 5.74 µM | 18.4 µM | 21 µM | 19.1 µM | 5.78 µM | 8.75 µM | 17.6 µM | 4.78 µM | 31 µM | 12.2 µM
CCC(=O)Nc1nc2c(ncn2C2OC(COC(=O)CC)C(OC(=O)CC)C2OC(=O)CC)c(=O)[nH]1 (centres undefined) | > 100 µM | > 100 µM | > 100 µM | > 100 µM | > 100 µM | > 100 µM | > 100 µM | > 100 µM | > 100 µM | – | – | – | – | – | – | – | – | – | – | –
CSC(=S)N/N=C/c1nccc2ccccc12 | 14.2 µM | 2.66 µM | 12.7 µM | > 27.1 µM | 8.05 µM | 3.65 µM | 6.99 µM | 18.8 µM | 6.12 µM | 5.03 µM | – | – | – | – | – | – | – | – | – | –
C/C(=N\NC(=O)CC#N)c1c(O)cc(C)oc1=O | > 100 µM | > 100 µM | > 100 µM | > 100 µM | > 100 µM | > 100 µM | > 100 µM | > 100 µM | > 100 µM | > 100 µM | – | – | – | – | – | – | – | – | – | –
